# Experimental data as given in US9365551B2, “2-(benzyloxy) benzamides as LRRK2 kinase inhibitors” (Glaxo Group Limited, priority 2010, dated 2016).
# Columns and labels:
# [1] = target: T1, 6His-Tev-LRRK2 (1326-2527) (Homo sapiens, UniProt Q5S007); assay: LRRK2 AlphaScreen desensitised protein substrate assay; assay type: biochemical; conditions: mean pIC50 of multiple test results
# T1 construct: A LRRK2 cDNA encoding residues 1326-2527 was received from Dundee University; made in house; host or cells: Spodoptera frugiperda (Sf9) insect cells, baculovirus (pFB-HTb)
# T1 sequence (Q5S007 1326-2527): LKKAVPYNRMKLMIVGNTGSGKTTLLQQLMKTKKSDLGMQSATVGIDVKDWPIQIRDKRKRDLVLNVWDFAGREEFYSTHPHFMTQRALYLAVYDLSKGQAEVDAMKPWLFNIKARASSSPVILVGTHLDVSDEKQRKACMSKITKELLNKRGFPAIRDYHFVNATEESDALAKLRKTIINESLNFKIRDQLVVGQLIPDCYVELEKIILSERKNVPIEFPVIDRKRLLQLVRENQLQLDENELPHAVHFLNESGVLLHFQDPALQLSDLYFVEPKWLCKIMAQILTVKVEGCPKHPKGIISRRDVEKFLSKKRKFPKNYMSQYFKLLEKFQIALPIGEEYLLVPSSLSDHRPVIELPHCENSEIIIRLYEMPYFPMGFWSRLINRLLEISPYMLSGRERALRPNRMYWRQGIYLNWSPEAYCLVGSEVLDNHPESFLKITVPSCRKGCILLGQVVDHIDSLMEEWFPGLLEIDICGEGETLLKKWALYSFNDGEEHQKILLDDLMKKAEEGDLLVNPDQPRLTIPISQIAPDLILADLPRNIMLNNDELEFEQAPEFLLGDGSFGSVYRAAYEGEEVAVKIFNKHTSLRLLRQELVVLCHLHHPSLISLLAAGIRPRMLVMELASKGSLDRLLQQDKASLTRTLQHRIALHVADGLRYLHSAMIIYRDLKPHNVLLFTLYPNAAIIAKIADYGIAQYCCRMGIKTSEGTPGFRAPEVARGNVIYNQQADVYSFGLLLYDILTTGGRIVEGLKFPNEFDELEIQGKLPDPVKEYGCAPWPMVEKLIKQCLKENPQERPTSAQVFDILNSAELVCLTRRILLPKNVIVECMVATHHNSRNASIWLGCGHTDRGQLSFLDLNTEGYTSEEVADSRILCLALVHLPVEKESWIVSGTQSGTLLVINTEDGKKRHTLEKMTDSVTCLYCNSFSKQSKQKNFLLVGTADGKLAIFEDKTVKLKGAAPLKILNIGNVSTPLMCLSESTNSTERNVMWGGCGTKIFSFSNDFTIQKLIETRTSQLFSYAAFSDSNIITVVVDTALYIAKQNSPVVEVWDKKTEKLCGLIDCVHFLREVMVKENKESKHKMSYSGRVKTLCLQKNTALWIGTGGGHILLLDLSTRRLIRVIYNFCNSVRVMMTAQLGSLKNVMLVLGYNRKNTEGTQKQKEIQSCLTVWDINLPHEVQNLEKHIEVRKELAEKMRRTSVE
# Procedure: (§1) Compounds of formula (I) may be tested for in vitro kinase activity in accordance with the following assays, using the non natural, in vitro, substrates moesin and the Longer Biotin-LRRKtide. Moesin and a shorter version of the peptide were identified as substrates in Jaleel et al. (2007, Biochem J, 405: 307-317).
# (§2) b) 3 μl enzyme solution (80 nM purified recombinant 6His-Tev-LRRK2 (1326-2527) in assay buffer: 50 mM Hepes (pH 7.2), 10 mM MgCl2, 150 mM NaCl, 5% glycerol, 0.0025% triton X-100 and 1 mM DTT) is added to certain wells. 3 μl assay buffer is added to certain wells as a 100% inhibition (no enzyme) control. c) After incubation at room temperature for 30 minutes, 3 μl substrate solution (2 μM Biotin-LRRKtide peptide substrate and ATP at Km in assay buffer) is added to each well. Plates are then incubated for a further 1-2 hours at room temperature (incubation time varies depending upon rate and linearity of reaction with differing enzyme batches). d) 6 μl detection solution (50 nM Streptavidin SureLight® APC (PerkinElmer), 4 nM Eu-W1024 labelled anti-rabbit IgG antibody (PerkinElmer), 1:500 dilution (dilution determined on a batch to batch basis) of Phospho-Ezrin (Thr567)/Radixin (Thr564)/Moesin (Thr558) Polyclonal Antibody (New England Biolabs) and 60 mM EDTA in buffer: 40 mM Hepes (pH 7.2), 150 mM NaCl, 0.03% BSA) is added to each well. Plates are then incubated for a further 2 hours at room temperature before reading on a suitable plate reader (Excitation 330 nm, emission 620 nm (Eu) and 665 nm (APC)). Data is analysed using ActivityBase software (IDBS). LRRK2 AlphaScreen Desensitised Protein Substrate Assay a) 100 nl of a 1:4 serial dilution of test compound with a top final assay concentration of 30 μM is added to certain wells in a low volume 384 well black plate. 100 nl of DMSO is used in certain wells as controls. b) 3 μl enzyme solution (80 nM purified recombinant 6His-Tev-LRRK2 (1326-2527) in assay buffer: 50 mM Hepes (pH 7.2), 10 mM MgCl2, 150 mM NaCl, 5% glycerol, 0.0025% triton X-100 and 1 mM DTT) is added to certain wells. 3 μl assay buffer is added to certain wells as a 100% inhibition (no enzyme) control. c) After incubation at room temperature for 30 minutes, 3 μl substrate solution (200 nM GST-PS-Moesin (400-577) and 2 mM ATP in assay buffer) is added to each well. Plates are then incubated for 20 minutes at room temperature. d) 6 μl detection solution (1:250 dilution of AlphaLisa Protein A Acceptor beads (PerkinElmer), 1:64 dilution of AlphaLisa Gluthathione Donor beads (PerkinElmer) and 1:600 dilution (dilution determined on a batch to batch basis) of Phospho-Ezrin (Thr567)/Radixin (Thr564)/Moesin (Thr558) Polyclonal Antibody (New England Biolabs) in a buffer: 50 mM Hepes (pH 7.5), 250 mM NaCl, 60 mM EDTA, 1% PEG and 0.01% Brij 35) is added to each well. Plates are then incubated for a further 2 hours at room temperature in the dark before reading on an EnVision™ plate reader with AlphaScreen HTS turbo option module and AlphaScreen settings. Data is analysed using ActivityBase software (IDBS). Pharmacological Data
# [2] = target: T1, 6His-Tev-LRRK2 (1326-2527); assay: LRRK2 peptide substrate assay; assay type: biochemical; conditions: mean pIC50 of multiple test results
# Procedure: as §1
# LRRK2 Peptide Substrate Assay
# a) 100 nl of a 1:4 serial dilution of test compound with a top final assay concentration of 30 μM is added to certain wells in a low volume 384 well black plate. 100 nl of DMSO is used in certain wells as controls.
# as §2
# [3] = GST-PS-Moesin (400-577) substrate, 2 mM ATP, read-out: LRRK2 alphascreen desensitized protein substrate assay (pIC50) (converted)
# [4] = stated as threshold, read-out: pIC50 in the LRRK2 alphascreen desensitised protein substrate assay (bounds) (converted)
# [5] = Biotin-LRRKtide peptide substrate, ATP at Km, read-out: LRRK2 peptide substrate assay (pIC50) (converted)
# [6] = stated as threshold, read-out: pIC50 in the LRRK2 peptide substrate assay (bounds) (converted)
"IC50 [2, 5] [nM]","IC50 [2, 6] [nM]",Structure (SMILES),"IC50 [1, 3] [nM]","IC50 [1, 4] [nM]"
50.1,≤ 100,"Cn1cc(-c2cc(C(=O)Nc3cccnc3)c(OCc3ccc(F)cc3)cc2CN2CCOCC2)cn1 [Example 17, 2-{[(4-Fluorophenyl)methyl]oxy}-5-(1-methyl-1H-pyrazol-4-yl)-4-(4-morpholinylmethyl)-N-3-pyridinylbenzamide]",158,≤ 316
–,≤ 100,"CN1CCN(C(=O)c2cc(OCc3ccccc3)c(C(=O)Nc3ccccc3)cc2Cl)CC1 [Example 57, 2-(benzyloxy)-5-chloro-4-(4-methylpiperazine-1-carbonyl)-N-phenylbenzamide]",–,≤ 25100
10,≤ 10,"O=C(Nc1cccnc1)c1cc(Br)c(CN2CCOCC2)cc1OCc1ccccc1 [Example 2, 5-Bromo-4-(4-morpholinylmethyl)-2-[(phenylmethyl)oxy]-N-3-pyridinylbenzamide]",251,≤ 316
15.8,≤ 100,"Cc1cc(OCc2ccccc2)c(C(=O)Nc2cccnc2)cc1-c1cnn(C)c1 [Example 7, 4-Methyl-5-(1-methyl-1H-pyrazol-4-yl)-2-[(phenylmethyl)oxy]-N-3-pyridinylbenzamide]",158,≤ 316
–,≤ 1260,"Cn1cc(-c2cc(OCc3ccc(F)cc3)c(C(=O)Nc3ccnnc3)cc2CN2CCOCC2)cn1 [Example 14, 2-{[(4-Fluorophenyl)methyl]oxy}-4-(1-methyl-1H-pyrazol-4-yl)-5-(4-morpholinylmethyl)-N-4-pyridazinylbenzamide]",–,≤ 25100
6.31,≤ 10,"Cn1cc(-c2cc(C(=O)Nc3cccnc3)c(OCc3ccccc3)cc2C(=O)N2CCCCC2)cn1 [Example 31, 5-(1-Methyl-1H-pyrazol-4-yl)-2-[(phenylmethyl)oxy]-4-(1-piperidinylcarbonyl)-N-3-pyridinylbenzamide]",50.1,≤ 316
–,≤ 1260,"O=C(Nc1ccnnc1)c1cc(C(F)(F)F)c(C(=O)N2CCOCC2)cc1OCc1ccccc1 [Example 38, 4-(4-Morpholinylcarbonyl)-2-[(phenylmethyl)oxy]-N-4-pyridazinyl-5-(trifluoromethyl)benzamide]",–,≤ 25100
–,≤ 10,"O=C(Nc1cccc(F)c1)c1cc(C(F)(F)F)c(CN2CCOCC2)cc1OCc1ccccc1 [Example 53, 2-(Benzyloxy)-N-(3-fluorophenyl)-4-(morpholinomethyl)-5-(trifluoromethyl)benzamide]",–,> 25100
–,≤ 100,"Cn1cc(-c2cc(C(=O)Nc3cccc(Cl)c3)c(OCc3ccccc3)cc2CN2CCOCC2)cn1 [Example 49, 2-(benzyloxy)-N-(3-chlorophenyl)-5-(1-methyl-1H-pyrazol-4-yl)-4-(morpholinomethyl)benzamide]",–,> 25100
–,≤ 1260,"O=C(Nc1cccnc1)c1cc(C(F)(F)F)c(CN2CCCCC2)cc1OCc1ccccc1 [Example 35, 2-[(Phenylmethyl)oxy]-4-(1-piperidinylmethyl)-N-3-pyridinyl-5-(trifluoromethyl)benzamide]",–,≤ 25100
–,≤ 100,"O=C(Nc1cccnc1)c1cc(C(F)(F)F)c(CN2CCOCC2)cc1OCc1ccccc1 [Example 33, 2-(Benzyloxy)-4-(morpholinomethyl)-N-(pyridin-3-yl)-5-(trifluoromethyl)benzamide]",–,≤ 316
–,≤ 1260,"Cn1cc(-c2cc(OCc3ccc(F)cc3)c(C(=O)Nc3cccnc3)cc2C(=O)N2CCOCC2)cn1 [Example 28, 2-{[(4-Fluorophenyl)methyl]oxy}-4-(1-methyl-1H-pyrazol-4-yl)-5-(4-morpholinylcarbonyl)-N-3-pyridinylbenzamide]",–,≤ 25100
50.1,≤ 100,"Cn1cc(-c2cc(C(=O)Nc3ccnnc3)c(OCc3ccc(F)cc3)cc2C(=O)N2CCOCC2)cn1 [Example 27, 2-{[(4-Fluorophenyl)methyl]oxy}-5-(1-methyl-1H-pyrazol-4-yl)-4-(4-morpholinylcarbonyl)-N-4-pyridazinylbenzamide]",1580,≤ 25100
6.31,≤ 10,"Cn1cc(-c2cc(C(=O)Nc3cccc(Cl)c3)c(OCc3ccc(F)cc3)cc2C(=O)N2CCOCC2)cn1 [Example 48, N-(3-chlorophenyl)-2-((4-fluorobenzyl)oxy)-5-(1-methyl-1H-pyrazol-4-yl)-4-(morpholine-4-carbonyl)benzamide]",15.8,≤ 316
–,≤ 100,"Cn1cc(-c2cc(C(=O)Nc3cccnc3)c(OCc3ccc(F)cc3)cc2C(=O)N2CCOCC2)cn1 [Example 26, 2-{[(4-Fluorophenyl)methyl]oxy}-5-(1-methyl-1H-pyrazol-4-yl)-4-(4-morpholinylcarbonyl)-N-3-pyridinylbenzamide]",–,≤ 316
–,≤ 1260,"O=C(Nc1ccnnc1)c1cc(C(F)(F)F)c(CN2CCOCC2)cc1OCc1ccccc1 [Example 34, 4-(4-Morpholinylmethyl)-2-[(phenylmethyl)oxy]-N-4-pyridazinyl-5-(trifluoromethyl)benzamide]",–,≤ 25100
